Laboratory results published in patent US20110117164A1, “Use of Additive Sites to Control Nitric Oxide Release from Nitric Oxide Donors Contained within Polymers” (priority 2004, published 2011).

Columns and labels:
[1] = NO release from polymer films/coatings containing NO donor in PBS buffer at 37° C. by chemiluminescence; format: physicochemical
Description: Thermal stability of diazeniumdiolates. […] Kinetics. […] Use in Hydrophobic Systems.
In the absence of the KTpClPB, NO release decreases dramatically after approximately 1 hour. […] The decrease in NO release observed is believed to result from an increase in the pH within the organic polymer film, which decreases the decomposition rate of lipophilic diazeniumdiolates. As water diffuses into the film initiating NO release, secondary amine sites result. The secondary amine sites have a higher pKa than water and therefore deprotonate water to form hydroxide ions. The basic microdomain environment that results within the polymer, in turn, slows further decomposition of the remaining diazeniumdiolates that would generate NO. This retardation may occur as a result of the organic ammonium hydroxide microphases within the polymer, which in turn serves to stabilize the remaining diazeniumdiolates.
FT-IR were collected on Perken Elmer Spectrum VX. […] Elemental analyses were performed. Reagents. […] NO was purchased from Matheson Gases. […] General NO Addition Procedure. […] The products were finally collected and dried under vacuum. Molar Extinction Coefficients. […] The maximum wavelength and absorbance were collected. […] Kinetics Studies. […] The NO released was measured using chemiluminescence. […] Preparation of Polymer Films Containing Diazeniumdiolates. […] The membranes were covered and allowed to cure overnight. […] Polymerization to Form Boc-protected Diamine Copolymer.
General Procedure for Deprotection to Form Diamine Copolymer (c). 35 mg of the copolymer (b) was dissolved in 2 mL of dichloromethane and then 200 μL of TFA (trifluoroacetic acid) was added dropwise. The solution was stirred at room temperature for about 3 hours. The reaction mixture was diluted with 20 mL of dichloromethane, and the organic phase was then washed with sodium bicarbonate, water, and brine, and was dried with sodium sulfate. The solvent was evaporated and the resulting copolymer was dried under vacuum overnight. ^1H-NMR was performed to confirm the structure and actual composition of the copolymer. General Procedure for NO Loading to Form Polymer-Based NO Donor (d). 20 mg of the deprotected copolymer (c) was dissolved in 3 mL of dry THF and placed in a high pressure reactor with a stirring bar, and flushed with argon for about 10 minutes. 100% excess of sodium methoxide (with respect to free amine sites) was added and the reactor was closed. The reactor was purged with argon again for several times (e.g. ten times) over a 1 hour period and was charged with NO at 80 psi. The reaction mixture was stirred for 72 hours at room temperature. After the reaction was complete, the copolymer was precipitated with dry hexane under argon. The remaining solvent was removed using a vacuum, and the diazeniumdiolated copolymers (d) were examined by UV-Vis spectrum as well as NOA. This resulting copolymer was stored in sealed vials charged with argon in a freezer. Preparation of Polymer Films Containing Polymer-Based No Donor. Polymer membranes containing the polymer-based NO donor was prepared by dissolving 60.8 mg poly(vinyl chloride) (PVC), 30.4 mg dioctyl sebacate (DOS), and 9.1 mg poly(lactide-co-glycolide) (50:50) (PLGA 50:50) in 1.5 mL of freshly distilled tetrahydrofuran. […] A trilayer film configuration is employed to fabricate films. […] Four hours later the polymer cocktail was cast on top of the PVC layer. After another 4 hours, the PVC solution was cast again as a finish layer. The membrane was covered and allowed to cure overnight. Polymer films containing no additives were prepared in a similar manner. […] NO Release Measurements by Chemiluminescence. All NO measurements were performed using a Sievers Nitric Oxide Analyzer (NOA), model 280. The instrument was calibrated before each experiment using an internal two-point calibration (zero gas and 45 PPM). The flow rate was set to 200 mL/min with a cell pressure of 5.4 torr and an oxygen pressure of 6.0 psig. […]

adult sheep = experiment: Coated VECTRA vascular access grafts implanted as arteriovenous grafts in sheep, 21 days; format: in vivo
Description: Synthetic vascular access grafts (VECTRA™), a proprietary blend of segmented polyetherurethane and siloxane (20 cm in length and 5 mm in diameter), were coated with compound 2d dispersed within a PVC/DOS matrix with appropriate additives. A sheep model was used for in vivo testing. Arteriovenous grafts connecting the common carotid artery to the ipsilateral external jugular vein were surgically implanted in subcutaneous tunnel in adult sheep. Over a 3-week period, duplex ultrasound and clinical examination were performed to assess graft patency. Grafts were removed at 21 days and underwent gross and histological evaluation. […] In addition, histological studies, using appropriate stains to highlight different regions, confirm the thrombus adherent at the luminal surface and red blood cell infiltration into upper layers of the control grafts (FIG. 11A).

[2] = Thermal gravimetric analysis under nitrogen (thermal stability of diazeniumdiolates); format: physicochemical; conditions: nitrogen atmosphere

With `CCCCNCCCCCCN(CCCC)/[N+]([O-])=N/O` [Compound 2d, (Z)-1-{N-Butyl-N-[6-(N-butylammoniohexyl)amino]}-diazen-1-ium-1,2-diolate] the “effect of doubling the NO donor amount” value ([1]; 4 wt. % vs 8 wt. % in 1:2 PVC/DOS film with KTpClPB) was “nearly doubles the surface flux and the NO release”, the “effect of plasticizer on NO release” value ([1]; PVC/NPOE matrix compared with PVC/DOS matrix, with KTpClPB) was “higher initial NO release” and the “effect of increasing polymer to plasticizer ratio on NO release” value ([1]; PVC:DOS increased from 1:2 to 2:1, films with KTpClPB) was “the NO release rate decreases and the release is prolonged”. For the same molecule, the “period of steady NO release” value ([1]; SR tubes coated with plasticized SR, 4.2 wt. % donor, 8.1 wt. % KTpClPB, PBS buffer at 37° C.) was 40 h, the “total estimated NO released from the surface of the tube” value ([1]; SR tubes coated with plasticized SR, 4.2 wt. % donor, 8.1 wt. % KTpClPB, after 40 h in PBS buffer at 37° C.) was 15% and the “time after which NO release decreases dramatically” value ([1]; plasticized PVC film, absence of KTpClPB) was “approximately 1 hour”. For the same molecule, the “effect of adding KTpClPB on NO release” value ([1]; plasticized PVC films, 1:1 mol ratio KTpClPB:donor, PBS pH 7.4, 37° C.) was “increases, prolongs, and helps to control the release of NO”, the “total NO release profile from film without additive” value ([1]; ~5 wt. % in PVC film plasticized with DOS (1:2), PBS buffer, 37° C., no KTpClPB) was “never achieving theoretical total NO release” and the graft patency (adult sheep; duplex ultrasound and clinical examination, n=2) was “patent at 21 days”. The “mean luminal thrombus-free surface area” value (adult sheep; grafts coated with donor in PVC/DOS matrix, removed at 21 days, n=2) was 95%, the “histological evaluation of grafts” value (adult sheep; grafts removed at 21 days) was “minimal thrombus formation and red blood cell infiltration” and the “gross evaluation of thrombus formation on grafts” value (adult sheep; grafts removed at 21 days, vs control grafts) was “greatly reduced degree of thrombus formation”. For the same molecule, the “TNO loss (stable up to)” value [2] was 104 °C, the “t1/2 ("apparent" t1/2 and t1/2)” value (buffer, pH 7.4) was 4.95 ± 0.567 min and the k (first order decomposition, PBS buffer, pH 7.4, 37° C., n > 3) was 0.0025 ± 0.0002 s⁻¹.
